Measurements: the NIST ThermoML archive (doi:10.1016/j.jct.2015.12.017)

Assay: molar heat capacity at constant pressure
Conditions: 101.33 kPa, Crystal 4, Vacuum adiabatic calorimetry

O=P([O-])([O-])[O-].[Co+2].[Cs+] [cesium cobalt(II) phosphate]
Conditions	molar heat capacity at constant pressure [J/K/mol]
5 K	1.355
6 K	2.328
6.05 K	2.228
6.49 K	2.594
6.93 K	2.96
7 K	2.893
7.36 K	3.11
7.78 K	3.317
8 K	3.492
8.19 K	3.633
8.62 K	4.041
9 K	4.091
9.08 K	4.232
9.58 K	4.457
10 K	4.689
10.1 K	4.822
10.63 K	5.13
11.16 K	5.471
11.67 K	5.737
12.16 K	5.97
13 K	6.635
14.27 K	7.807
15 K	8.29
15.59 K	8.921
16.94 K	10.37
18.33 K	11.79
19.77 K	13.05
20 K	13.44
20.92 K	14.28
22.76 K	16.17
24.48 K	17.93
25 K	18.57
26.27 K	19.85
28.12 K	21.62
30 K	23.49
30.03 K	23.55
32 K	25.54
34.02 K	27.66
35 K	28.29
36.12 K	29.27
37.97 K	30.99
40 K	33.01
40.47 K	33.46
42.73 K	35.36
45 K	37.42
45.02 K	37.41
47.34 K	39.6
49.71 K	41.16
50 K	41.41
52.12 K	42.9
54.56 K	44.8
57.05 K	46.5
59.55 K	48
60 K	48.39
62.07 K	49.7
64.59 K	51.3
67.13 K	53
69.7 K	54.4
70 K	54.75
72.02 K	56.1
74.09 K	57.4
76.18 K	58.59
78.27 K	59.6
80 K	60.56
80.36 K	60.71
80.84 K	60.8
82.45 K	61.91
82.83 K	62.06
84.54 K	62.83
85.25 K	63.18
86.65 K	64.17
87.47 K	64.52
89.36 K	65.58
89.69 K	65.7
90 K	65.75
91.92 K	66.67
94.14 K	67.78
96.37 K	69.09
98.6 K	70.17
100 K	70.96
100.83 K	71.3
103.07 K	72.37
105.3 K	73.45
107.54 K	74.66
109.78 K	75.44
110 K	75.59
111.8 K	76.31
114.54 K	77.64
116.74 K	78.51
118.98 K	79.46
120 K	79.79
121.23 K	80.28
123.47 K	81.37
125.71 K	82.23
127.95 K	83.09
130 K	83.89
130.19 K	83.89
132.43 K	84.89
134.67 K	85.72
136.91 K	86.55
139.14 K	87.39
140 K	87.97
141.38 K	88.3
143.49 K	89.3
145.85 K	90.21
148.08 K	91.21
150 K	91.96
150.3 K	91.79
151.78 K	92.54
152.91 K	93.04
153.96 K	93.62
155.41 K	94.12
157.59 K	94.87
159.03 K	95.37
160 K	95.78
161.93 K	96.28
163.35 K	96.95
164.07 K	97.28
165.61 K	97.86
166.94 K	98.53
167.88 K	98.78
170 K	99.36
170.03 K	99.61
172.23 K	100.19
174.44 K	100.85
176.64 K	101.6
178.83 K	102.35
180 K	102.68
181.02 K	103.1
183.21 K	103.93
185.4 K	104.51
187.59 K	105.09
189.78 K	105.59
190 K	105.76
191.97 K	106.18
194.89 K	106.84
196.33 K	107.26
198.51 K	107.92
200 K	108.59
200.68 K	108.67
202.82 K	109.34
204.99 K	109.92
207.16 K	110.5
209.32 K	111.16
210 K	111.25
211.49 K	111.66
213.66 K	112.25
215.82 K	112.83
217.98 K	113.49
220 K	113.83
220.14 K	114.07
222.3 K	114.66
224.46 K	115.07
226.62 K	115.82
228.77 K	116.15
230 K	116.49
230.93 K	116.65
233.08 K	117.32
235.23 K	117.73
237.35 K	118.4
239.5 K	118.98
240 K	119.23
241.65 K	119.56
243.79 K	120.23
245.94 K	120.81
248.09 K	121.39
250 K	121.97
250.23 K	121.97
252.37 K	122.72
254.5 K	123.3
256.64 K	123.8
258.77 K	124.3
260 K	124.72
260.91 K	124.88
263.04 K	125.38
265.17 K	126.05
267.3 K	126.71
269.42 K	127.29
270 K	127.29
271.51 K	127.71
273.15 K	128.04
273.63 K	128.13
276.36 K	128.79
278.4 K	129.21
280 K	129.62
280.51 K	129.79
282.62 K	130.29
284.72 K	130.62
286.82 K	131.12
288.92 K	131.62
290 K	131.78
291.02 K	132.2
293.09 K	132.62
295.18 K	133.03
297.25 K	133.53
298.15 K	133.7
299.32 K	134.03
300 K	134.11
301 K	134.69
301.38 K	134.69
302.98 K	135.36
303.43 K	135.36
